Assay results reported in ChEMBL document CHEMBL1909046, “DrugMatrix in vitro pharmacology data”.

Assays:
[1] = DRUGMATRIX: ATPase, Na+/K+ enzyme inhibition (substrate: ATP); assay type: tissue-based, Sus scrofa, Heart; conditions: Not Active = under 50% inhibition at 10 µM
[2] = target: Mitogen-activated protein kinase 3 (Homo sapiens, UniProt P27361); experiment: DRUGMATRIX: Protein Serine/Threonine Kinase, ERK1 enzyme inhibition (substrate: Myelin Basic Protein); design: species or system Escherichia coli; conditions: Not Active = under 50% inhibition at 10 µM
Chain of Mitogen-activated protein kinase 3 (P27361 whole entry): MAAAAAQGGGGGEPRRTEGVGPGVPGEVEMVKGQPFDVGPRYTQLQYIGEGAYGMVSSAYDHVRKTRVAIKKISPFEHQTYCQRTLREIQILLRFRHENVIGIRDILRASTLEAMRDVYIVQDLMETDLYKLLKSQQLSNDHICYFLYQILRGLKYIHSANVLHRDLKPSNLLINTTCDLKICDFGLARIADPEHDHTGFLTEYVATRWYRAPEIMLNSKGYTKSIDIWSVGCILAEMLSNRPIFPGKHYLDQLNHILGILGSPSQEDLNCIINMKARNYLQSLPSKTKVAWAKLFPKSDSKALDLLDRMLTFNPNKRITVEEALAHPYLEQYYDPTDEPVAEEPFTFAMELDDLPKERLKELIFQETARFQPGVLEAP

[3] = target: T1, Interstitial collagenase (Homo sapiens, UniProt P03956); experiment: biochemical; assay type: tissue-based, Rheumatoid synovial fibroblasts;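 also: MMP-1 enzyme inhibition assay using a peptide substrate; in other assays of this panel Not Active means under 50% inhibition at 10 µM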
T1 sequence (P03956 whole entry): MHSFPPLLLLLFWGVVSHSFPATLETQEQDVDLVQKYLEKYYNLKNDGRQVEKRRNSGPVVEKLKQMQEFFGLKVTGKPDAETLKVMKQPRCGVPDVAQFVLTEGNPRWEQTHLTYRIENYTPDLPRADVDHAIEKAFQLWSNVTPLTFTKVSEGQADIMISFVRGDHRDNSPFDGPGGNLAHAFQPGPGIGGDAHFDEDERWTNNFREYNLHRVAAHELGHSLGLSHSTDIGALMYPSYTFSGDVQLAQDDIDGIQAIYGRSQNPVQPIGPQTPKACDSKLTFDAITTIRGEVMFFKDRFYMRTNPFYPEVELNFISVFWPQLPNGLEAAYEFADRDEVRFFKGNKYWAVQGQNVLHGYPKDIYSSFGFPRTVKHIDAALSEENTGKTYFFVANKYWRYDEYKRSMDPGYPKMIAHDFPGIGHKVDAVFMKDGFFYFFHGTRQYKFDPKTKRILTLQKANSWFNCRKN

[4] = DRUGMATRIX: Serotonin (5-Hydroxytryptamine) 5-HT3 radioligand binding (ligand: [3H] GR-65630); assay type: cell membranes, Membrane; conditions: hek293; Not Active = under 50% inhibition at 10 µM
[5] = target: Melanocortin receptor 5 (Homo sapiens, UniProt P33032); assay type: cell membranes, HEK293, Membrane; conditions: hek293; also: in other assays of this panel Not Active means under 50% inhibition at 10 µM
Chain of Melanocortin receptor 5 (P33032 whole entry): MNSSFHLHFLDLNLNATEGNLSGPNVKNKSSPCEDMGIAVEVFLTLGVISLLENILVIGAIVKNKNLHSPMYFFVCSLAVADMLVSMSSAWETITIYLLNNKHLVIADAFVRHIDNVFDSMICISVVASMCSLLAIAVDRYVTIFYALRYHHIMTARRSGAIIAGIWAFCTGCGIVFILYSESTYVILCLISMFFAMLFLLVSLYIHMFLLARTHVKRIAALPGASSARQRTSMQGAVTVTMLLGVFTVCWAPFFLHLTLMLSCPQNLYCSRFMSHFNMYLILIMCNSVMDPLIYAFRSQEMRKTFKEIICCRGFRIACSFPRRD

[6] = DRUGMATRIX: GABAA, Muscimol, Central radioligand binding (ligand: [3H] Muscimol); assay type: cell membranes, Rattus norvegicus, Wistar, Brain, Membrane; conditions: Not Active = under 50% inhibition at 10 µM
[7] = DRUGMATRIX: Tumor Necrosis Factor (TNF), Non-Selective radioligand binding (ligand: [125I] TNF-alpha); assay type: cell membranes, Membrane; conditions: u-937; Not Active = under 50% inhibition at 10 µM
[8] = target: T2, Receptor-type tyrosine-protein phosphatase C (Homo sapiens, UniProt P08575); design: species or system Escherichia coli;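 also: inhibition of CD45 enzyme activity measured using DiFMUP as substrate; in other assays of this panel Not Active means under 50% inhibition at 10 µM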
T2 sequence (P08575 whole entry): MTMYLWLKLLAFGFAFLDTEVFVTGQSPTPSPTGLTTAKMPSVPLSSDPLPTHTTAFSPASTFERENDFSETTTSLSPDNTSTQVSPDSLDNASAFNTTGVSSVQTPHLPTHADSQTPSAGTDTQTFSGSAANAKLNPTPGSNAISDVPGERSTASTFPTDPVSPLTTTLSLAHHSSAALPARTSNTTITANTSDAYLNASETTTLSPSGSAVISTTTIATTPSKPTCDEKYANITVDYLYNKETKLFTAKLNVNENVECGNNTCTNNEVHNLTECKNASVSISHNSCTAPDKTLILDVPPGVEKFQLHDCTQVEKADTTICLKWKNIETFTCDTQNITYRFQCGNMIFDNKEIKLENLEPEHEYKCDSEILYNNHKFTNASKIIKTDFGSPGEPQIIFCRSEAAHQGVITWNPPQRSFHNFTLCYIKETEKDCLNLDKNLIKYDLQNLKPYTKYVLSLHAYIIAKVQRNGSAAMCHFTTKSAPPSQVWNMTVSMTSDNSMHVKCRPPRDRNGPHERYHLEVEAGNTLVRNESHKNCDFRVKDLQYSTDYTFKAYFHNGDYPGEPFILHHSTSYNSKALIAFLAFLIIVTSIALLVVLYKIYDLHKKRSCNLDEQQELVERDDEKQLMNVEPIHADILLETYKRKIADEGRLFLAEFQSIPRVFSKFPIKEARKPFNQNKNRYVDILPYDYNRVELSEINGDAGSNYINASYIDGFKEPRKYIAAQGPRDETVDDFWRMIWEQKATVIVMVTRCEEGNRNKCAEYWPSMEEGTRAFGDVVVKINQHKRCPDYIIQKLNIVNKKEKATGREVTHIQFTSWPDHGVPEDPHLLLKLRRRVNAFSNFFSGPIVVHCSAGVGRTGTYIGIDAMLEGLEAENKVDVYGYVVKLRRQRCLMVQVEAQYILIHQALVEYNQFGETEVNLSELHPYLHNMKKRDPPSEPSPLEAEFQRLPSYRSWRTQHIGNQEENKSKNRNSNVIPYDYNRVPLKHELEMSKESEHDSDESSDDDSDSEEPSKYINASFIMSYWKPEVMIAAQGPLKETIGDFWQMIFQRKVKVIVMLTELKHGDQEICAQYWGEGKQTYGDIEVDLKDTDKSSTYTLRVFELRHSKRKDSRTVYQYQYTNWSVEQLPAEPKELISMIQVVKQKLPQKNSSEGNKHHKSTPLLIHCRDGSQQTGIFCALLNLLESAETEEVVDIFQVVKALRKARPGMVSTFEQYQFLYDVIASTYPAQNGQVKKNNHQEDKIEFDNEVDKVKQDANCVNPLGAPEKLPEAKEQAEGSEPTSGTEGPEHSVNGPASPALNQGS

Clc1ccccc1CN1CCc2sccc2C1 [TICLOPIDINE]
Not Active: IC50 [1] | Ki [1] | IC50 [2] | IC50 [3] | IC50 [4] | Ki [4] | IC50 [5] | IC50 [6] | Ki [6] | IC50 [7] | Ki [7] | IC50 [8]

NC1CCN(c2nc3c(cc2F)c(=O)c(C(=O)O)cn3-c2ccc(F)cc2F)C1 (centres undefined) [TOSUFLOXACIN]
Not Active: IC50 [1] | Ki [1] | IC50 [2] | IC50 [3] | IC50 [4] | Ki [4] | IC50 [5] | IC50 [6] | Ki [6] | IC50 [7] | Ki [7] | IC50 [8]

O=C(Nc1ccc(Br)cc1)c1cc(Br)cc(Br)c1O [TRIBROMSALAN]
Not Active: IC50 [1] | Ki [1] | IC50 [2] | IC50 [3] | IC50 [4] | Ki [4] | IC50 [5] | IC50 [6] | Ki [6] | IC50 [7] | Ki [7] | IC50 [8]

CC(c1cc2ccccc2s1)N(O)C(N)=O (centres undefined) [ZILEUTON]
Not Active: IC50 [1] | Ki [1] | IC50 [2] | IC50 [3] | IC50 [4] | Ki [4] | IC50 [5] | IC50 [6] | Ki [6] | IC50 [7] | Ki [7] | IC50 [8]

MANGANESE CHLORIDE ANHYDROUS
Not Active: IC50 [1] | Ki [1] | IC50 [2] | Ki [2] | IC50 [3] | Ki [3] | IC50 [4] | Ki [4] | IC50 [5] | Ki [5] | IC50 [6] | Ki [6] | IC50 [7] | Ki [7] | IC50 [8] | Ki [8]
